Source: ChEMBL document CHEMBL1201862, “PubChem BioAssay data set” (2004)
The source made the active and inactive calls.

Legend:
[1] = HEp-2 cell cytotoxicity, dose response, cytotoxicity control for RSV inhibitor project, HTS (AID 2410); assay type: functional; conditions: human respiratory syncytial virus
[2] = molecular target: T1, Protein skinhead-1 (Caenorhabditis elegans, UniProt P34707); assay type: functional
T1 sequence (P34707 whole entry): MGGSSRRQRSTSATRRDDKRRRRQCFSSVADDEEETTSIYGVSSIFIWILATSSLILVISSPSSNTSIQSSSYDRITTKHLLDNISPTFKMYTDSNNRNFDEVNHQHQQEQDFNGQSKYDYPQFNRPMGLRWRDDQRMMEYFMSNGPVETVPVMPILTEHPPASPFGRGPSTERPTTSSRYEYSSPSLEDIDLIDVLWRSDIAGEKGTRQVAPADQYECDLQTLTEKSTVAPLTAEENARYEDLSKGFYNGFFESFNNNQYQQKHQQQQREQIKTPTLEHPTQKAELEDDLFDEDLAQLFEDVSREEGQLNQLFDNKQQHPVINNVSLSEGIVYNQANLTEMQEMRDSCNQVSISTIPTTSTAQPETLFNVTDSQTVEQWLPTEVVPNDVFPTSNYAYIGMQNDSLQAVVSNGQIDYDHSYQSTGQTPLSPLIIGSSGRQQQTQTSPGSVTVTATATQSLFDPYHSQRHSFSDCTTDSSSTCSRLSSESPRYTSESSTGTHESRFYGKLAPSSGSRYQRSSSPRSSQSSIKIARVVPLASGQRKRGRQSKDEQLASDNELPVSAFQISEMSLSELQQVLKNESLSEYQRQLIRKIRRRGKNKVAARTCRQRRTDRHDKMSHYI

[3] = Shn3 3'UTR reporter inhibitors, dose response, cell-based, Clone20 osteoblasts, firefly luciferase, cherry-picked (AID 624132); assay type: functional;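 also: firefly luciferase luminescence from reporter carrying the Shn3 3'UTR in osteoblasts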
[4] = Luminescence Cell-Based Dose Response HTS to Identify Activators of Luciferase Translation or Activity in H4 […] Cells. [Related pubchem assays: 1829 (Project Summary), 1814 (Primary HTS)]; assay type: functional
[5] = test system: H4; experiment: Luminescence Cell-Based Dose Response HTS to Identify Activators of 5'UTR Stem-Loop Driven Prion Protein mRNA Translation in H4 Neuroglioblastoma Cells. [Related pubchem assays: 1829 (Project Summary), 1814 (Primary HTS)]; assay type: functional; conditions: Homo sapiens
[6] = cells; assay type: functional
[7] = molecular target: T2, Replicative DNA helicase DnaB (Mycobacterium tuberculosis, UniProt P9WMR3); experiment: DnaB intein splicing inhibitors, dose response, biochemical, cell-free fluorescence (AID 449749); assay type: functional
T2 sequence (P9WMR3 whole entry): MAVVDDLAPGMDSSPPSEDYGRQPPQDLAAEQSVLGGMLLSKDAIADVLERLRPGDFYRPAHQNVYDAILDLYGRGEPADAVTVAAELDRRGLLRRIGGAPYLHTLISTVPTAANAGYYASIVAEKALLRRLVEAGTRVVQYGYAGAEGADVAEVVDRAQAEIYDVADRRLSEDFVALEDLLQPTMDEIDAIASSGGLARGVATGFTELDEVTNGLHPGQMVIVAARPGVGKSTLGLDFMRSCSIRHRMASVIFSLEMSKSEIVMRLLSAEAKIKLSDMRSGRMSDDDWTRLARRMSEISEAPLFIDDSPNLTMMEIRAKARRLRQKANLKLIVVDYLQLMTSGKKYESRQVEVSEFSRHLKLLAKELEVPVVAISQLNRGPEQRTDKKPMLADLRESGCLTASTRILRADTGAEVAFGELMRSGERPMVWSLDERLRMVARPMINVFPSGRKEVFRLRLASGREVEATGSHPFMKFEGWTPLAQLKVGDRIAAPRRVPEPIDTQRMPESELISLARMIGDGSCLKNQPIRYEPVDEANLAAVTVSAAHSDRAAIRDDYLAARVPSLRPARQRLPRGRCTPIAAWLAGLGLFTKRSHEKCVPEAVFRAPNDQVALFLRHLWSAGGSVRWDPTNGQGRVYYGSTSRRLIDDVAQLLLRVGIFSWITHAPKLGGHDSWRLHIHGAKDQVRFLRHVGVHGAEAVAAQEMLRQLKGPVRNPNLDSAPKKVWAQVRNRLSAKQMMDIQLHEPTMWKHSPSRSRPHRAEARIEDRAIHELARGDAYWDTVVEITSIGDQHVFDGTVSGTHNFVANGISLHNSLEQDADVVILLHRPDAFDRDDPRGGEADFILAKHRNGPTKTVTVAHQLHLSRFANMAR

[8] = molecular target: T3, Protein RecA (Mycobacterium tuberculosis, UniProt P9WHJ3); experiment: Fluorescence Cell-Free Homogeneous Dose Retest to Identify Inhibitors of RecA-Intein Splicing Activity. [Related pubchem assays (depositor defined):AID2097, AID2223, AID489010, AID492950]; assay type: functional
T3 sequence (P9WHJ3 whole entry): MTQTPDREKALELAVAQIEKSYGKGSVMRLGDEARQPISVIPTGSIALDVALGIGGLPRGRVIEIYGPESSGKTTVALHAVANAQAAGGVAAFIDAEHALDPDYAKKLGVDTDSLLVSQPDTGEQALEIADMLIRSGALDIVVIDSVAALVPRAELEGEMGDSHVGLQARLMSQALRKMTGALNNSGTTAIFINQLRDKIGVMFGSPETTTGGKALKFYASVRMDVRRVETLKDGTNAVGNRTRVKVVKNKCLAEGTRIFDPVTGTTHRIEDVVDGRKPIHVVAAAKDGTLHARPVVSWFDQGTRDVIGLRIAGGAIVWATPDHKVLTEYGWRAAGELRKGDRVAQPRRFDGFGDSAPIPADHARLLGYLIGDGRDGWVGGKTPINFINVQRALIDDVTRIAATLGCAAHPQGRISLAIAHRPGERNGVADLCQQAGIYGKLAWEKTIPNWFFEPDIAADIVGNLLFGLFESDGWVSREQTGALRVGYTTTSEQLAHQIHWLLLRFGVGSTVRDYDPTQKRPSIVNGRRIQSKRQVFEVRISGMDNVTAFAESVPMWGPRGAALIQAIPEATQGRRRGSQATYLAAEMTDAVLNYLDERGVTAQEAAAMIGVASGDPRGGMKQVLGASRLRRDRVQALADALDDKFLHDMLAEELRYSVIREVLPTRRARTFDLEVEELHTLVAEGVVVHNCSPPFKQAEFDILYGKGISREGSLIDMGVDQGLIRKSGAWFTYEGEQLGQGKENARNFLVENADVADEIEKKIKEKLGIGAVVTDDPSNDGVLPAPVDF

[9] = molecular target: Large T antigen (Simian virus 40, UniProt P03070); assay type: functional, Betapolyomavirus macacae;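 also: Confirmatory-stage PubChem screen for compounds that inhibit SV40 T antigen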
Sequence of Large T antigen (P03070 whole entry): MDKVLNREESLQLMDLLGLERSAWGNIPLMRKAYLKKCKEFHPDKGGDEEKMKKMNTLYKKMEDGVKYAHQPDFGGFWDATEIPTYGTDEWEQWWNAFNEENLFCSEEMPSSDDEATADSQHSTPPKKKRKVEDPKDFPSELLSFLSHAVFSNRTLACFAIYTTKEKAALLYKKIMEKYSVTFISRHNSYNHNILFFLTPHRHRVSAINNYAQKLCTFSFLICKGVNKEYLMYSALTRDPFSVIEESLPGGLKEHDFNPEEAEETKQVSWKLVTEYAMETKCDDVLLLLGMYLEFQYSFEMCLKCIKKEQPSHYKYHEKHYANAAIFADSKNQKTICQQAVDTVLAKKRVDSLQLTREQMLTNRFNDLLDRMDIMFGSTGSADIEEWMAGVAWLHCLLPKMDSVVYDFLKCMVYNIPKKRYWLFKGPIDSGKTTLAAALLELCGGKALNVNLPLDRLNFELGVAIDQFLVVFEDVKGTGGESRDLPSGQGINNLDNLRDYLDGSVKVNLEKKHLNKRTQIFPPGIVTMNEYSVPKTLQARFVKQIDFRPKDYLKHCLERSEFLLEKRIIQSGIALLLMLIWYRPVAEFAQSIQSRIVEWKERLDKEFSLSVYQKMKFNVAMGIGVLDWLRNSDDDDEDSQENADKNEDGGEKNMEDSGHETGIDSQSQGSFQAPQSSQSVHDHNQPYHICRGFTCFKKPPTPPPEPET

[10] = molecular target: T4, Zinc finger protein mex-5 (Caenorhabditis elegans, UniProt Q9XUB2); experiment: MEX-5/TCR-2 RNA interaction inhibitors, dose response, biochemical, C. elegans, fluorescence polarization (AID 1960)
T4 sequence (Q9XUB2 whole entry): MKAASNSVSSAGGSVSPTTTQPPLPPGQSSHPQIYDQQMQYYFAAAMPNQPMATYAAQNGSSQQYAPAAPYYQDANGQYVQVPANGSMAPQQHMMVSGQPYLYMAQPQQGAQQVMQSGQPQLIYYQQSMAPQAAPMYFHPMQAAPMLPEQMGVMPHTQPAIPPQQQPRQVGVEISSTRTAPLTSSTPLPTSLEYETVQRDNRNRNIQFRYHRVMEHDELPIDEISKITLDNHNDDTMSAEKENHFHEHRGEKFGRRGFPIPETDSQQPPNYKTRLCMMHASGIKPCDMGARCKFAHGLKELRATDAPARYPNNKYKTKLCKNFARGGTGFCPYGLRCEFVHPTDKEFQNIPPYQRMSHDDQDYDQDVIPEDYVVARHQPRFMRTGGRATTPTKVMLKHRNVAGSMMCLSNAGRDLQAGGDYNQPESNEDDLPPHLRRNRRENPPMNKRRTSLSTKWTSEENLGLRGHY

[11] = molecular target: T5, RNA-binding protein pos-1 (Caenorhabditis elegans, UniProt G5EF15); experiment: inhibitors of POS-1/mex-3 RNA binding, dose response, biochemical, fluorescence polarization (AID 1964);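 also: purified POS-1 fused to maltose binding protein made in E. coli; potency of compounds blocking POS-1 binding to fluorescent RNA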
T5 sequence (G5EF15 whole entry): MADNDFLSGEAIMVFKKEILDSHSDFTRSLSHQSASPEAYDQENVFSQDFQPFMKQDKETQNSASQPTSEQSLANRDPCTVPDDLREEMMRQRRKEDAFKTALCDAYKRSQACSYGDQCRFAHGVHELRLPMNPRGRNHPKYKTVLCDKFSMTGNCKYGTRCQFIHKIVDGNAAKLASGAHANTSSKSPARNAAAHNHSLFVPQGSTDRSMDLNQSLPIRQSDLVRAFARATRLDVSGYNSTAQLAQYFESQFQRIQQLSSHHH

[12] = test system: H9c2; experiment: cells; assay type: functional, cell-based; conditions: Rattus norvegicus, H9c2, Myocardium;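 also: confirmatory concentration-response retest of ultra-high-throughput screening hits for modulation of myocardial damage; cell death induced by hydrogen peroxide oxidative stress; compound pretreatment for 60 min then peroxide exposure for 2 h; potency is for protecting the cells against peroxide damage rather than for killing them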
[13] = molecular target: T6, Calpain-2 catalytic subunit (Sus scrofa, UniProt P43367); experiment: pig calpain II inhibitor potency, dose response, biochemical, fluorogenic peptide substrate (AID 1420); assay type: functional
T6 sequence (P43367 whole entry): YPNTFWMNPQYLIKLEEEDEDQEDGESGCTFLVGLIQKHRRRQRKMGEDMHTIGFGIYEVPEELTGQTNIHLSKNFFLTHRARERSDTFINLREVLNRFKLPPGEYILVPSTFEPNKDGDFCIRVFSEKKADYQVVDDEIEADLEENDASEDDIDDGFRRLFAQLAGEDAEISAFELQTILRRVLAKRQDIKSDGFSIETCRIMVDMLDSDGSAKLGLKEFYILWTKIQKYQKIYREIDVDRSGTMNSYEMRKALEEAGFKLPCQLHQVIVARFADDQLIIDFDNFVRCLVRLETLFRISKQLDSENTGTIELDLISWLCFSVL

[14] = growth suppression of beta-catenin-knockout colon cells, dose response, cell-based, HCT116, human colon tumor (AID 1045); assay type: functional;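 also: HCT116 colon tumor cells with beta catenin knocked out; cells exposed to compound for 60 hours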
[15] = C. albicans growth with fluconazole, confirmation, fluorescence, retest (AID 2467); assay type: functional, cell-based
[16] = NIH-3T3 fibroblast cytotoxicity, dose response, cytotoxicity control, cell-based, fluorescence, Alamar Blue, secondary assay (AID 2327); assay type: functional;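 also: NIH-3T3 mouse fibroblasts cultured with fluconazole at 8 µg/mL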

## O=S(=O)(c1ccccc1)N1CCC(c2nc(O)c3nnn(Cc4c(F)cccc4Cl)c3n2)CC1
[1]
  CC50: 26 µM (active)

## Cc1ccc2ncnc(Nc3cccc([N+](=O)[O-])c3)c2c1
[2]
  IC50: > 100 µM (inactive)

## CCC(C(=O)N(C(C)C)C(C)C)c1ccccc1 (stereo not drawn)
[2]
  IC50: > 100 µM (inactive)

## Fc1ccc(OCc2nc(-c3cccs3)no2)cc1
[2]
  IC50: 24.5 µM (active)

## COc1ccc(Cl)cc1NC(=O)C(C)OC(=O)c1ccc(NS(=O)(=O)c2ccc3[nH]c(O)nc3c2)cc1 (stereo not drawn)
[1]
  CC50: 15.8 µM (active)

## C=CC[C@H](CC(=O)N(CCO)Cc1ccccc1)C(=O)NC[C@H](OC(=O)[C@@H](CC=C)Cc1ccc(F)cc1)c1ccccc1
[3]
  AC50: 10.7 µM (active)

## Cc1ccccc1-c1noc(-c2cccs2)n1
[2]
  IC50: 7.91 µM (active)

## CCC(=O)Nc1cccc(-c2nc3ccc(C)cc3o2)c1
[1]
  CC50: 39.4 µM (active)

## CCCC(C(=O)Nc1ccc(S(=O)(=O)N2CCOCC2)cc1)c1ccccc1 (stereo not drawn)
[2]
  IC50: > 100 µM (inactive)

## CCCCC(=O)Nc1cccc(-c2csc(-c3ccccc3)n2)c1
[1]
  CC50: 23.9 µM (active)

## CCOc1ccccc1C(=O)Nc1cc2c(cc1N1CCCC1)n(CC)c(=O)n2CC
[1]
  CC50: 13.5 µM (active)

## Cc1onc(-c2c(Cl)cccc2Cl)c1C(=O)N[C@@H]1C(=O)N2[C@@H]1SC(C)(C)[C@@H]2C(=O)O [DICLOXACILLIN SODIUM]
[3]
  AC50: 46.7 µM (active)

## COc1cc2ccccc2cc1C(=O)Nc1nccs1
[4]
  EC50: 59.4 µM (active)
[5]
  EC50: 22.8 µM (active)
[2]
  IC50: 5.97 µM (active)

## O=C(C/C=N\OCc1ccc([N+](=O)[O-])cc1)Nc1ccccc1
[6]
  IC50: 16.1 µM (active)

## O=C(CCl)Nc1cccc(CP(=O)(c2ccccc2)c2ccccc2)c1
[7]
  AC50: 93.2 µM (active)
[8]
  EC50: 18.4 µM (active)

## COc1ccc(N2C(=O)/C(=C/c3ccc(C)o3)C(=O)NC2=S)c(OC)c1
[9]
  IC50: 34.3 µM (active)
[10]
  EC50: 41.3 µM (active)
[11]
  EC50: > 300 µM (not active)

## CCC(C)c1ccc(NC(=O)Nc2cccnc2)cc1 (stereo not drawn)
[1]
  CC50: 22.7 µM (active)

## CCOC(=O)C1CCN(c2cc3c(cc2NC(=O)c2ccccc2Br)n(C)c(=O)n3C)CC1
[12]
  IC50: 67.2 µM (inactive)
[3]
  AC50: 21.3 µM (active)

## CCOC(=O)c1nnc(-c2cccs2)nc1Oc1ccc(Cl)cc1
[7]
  AC50: 24.5 µM (active)
[8]
  EC50: 16.5 µM (active)

## O=C1c2ccccc2C(=O)N1CCCCN(C(=O)c1cccc([N+](=O)[O-])c1)c1ccc(Cl)cc1
[1]
  CC50: 43.7 µM (active)

## COc1ccc2c(c1)CC/C(=C/c1ccco1)C2=O
[2]
  IC50: 28.9 µM (active)

## CCCCCOc1ccccc1C(=O)NCCC(=O)O
[2]
  IC50: > 100 µM (inactive)

## COc1ccc(N2C(=O)/C(=C/c3ccc([N+](=O)[O-])cc3)C=C2c2ccccc2)cc1
[2]
  IC50: > 100 µM (inactive)

## CCOC(=O)N1CCN(c2ccc([N+](=O)[O-])cc2)CC1
[1]
  CC50: 26 µM (active)
[13]
  IC50: 30.7 µM (not active)

## O=C(O)CN1C(=O)/C(=C\c2cccc(OC(=O)c3ccco3)c2)SC1=S
[7]
  AC50: 29.5 µM (active)
[8]
  EC50: 22.6 µM (active)

## Cc1cc(OC(=O)c2ccccc2)n(CCC#N)n1
[7]
  AC50: 8.7 µM (active)
[8]
  EC50: 2.67 µM (active)

## COC(=O)C1=C(C)N(c2ccc(F)c(Cl)c2)C(=O)C1
[14]
  EC50: 206 µM (active)

## CCOc1cc(C=O)cc(N=Nc2cccc([N+](=O)[O-])c2)c1O
[15]
  EC50: 4.04 µM (active)
[6]
  IC50: 7.46 µM (active)
[16]
  EC50: > 150 µM (inactive)

## Nc1cc(S(=O)(=O)c2ccc(O)c(N)c2)ccc1O
[9]
  IC50: 20.5 µM (active)

## CNC(=O)Oc1ccc2ncccc2c1
[9]
  IC50: > 100 µM (active)

## C=CCn1c(=S)[nH]c2scc(-c3ccco3)c2c1=O
[9]
  IC50: 24.1 µM (active)
